In article PMC6304418, “A Novel Compound Targeting Protease Receptor 1 Activators for the Treatment of Glioblastoma” (Frontiers in Neurology, 2018):
Where a SMILES comes first, the peptide text is derived from it. The star is where a group is joined. Tos = Cc1ccc(S(=O)(=O)*)cc1; CH2Cl = ClC*

Key:
U87 glioma cells = test: U87 glioma cell proliferation (XTT); format: cell-based, human; conditions: 72 h
Method: CNS-1, C6, and U87 rat and human glioma cells were grown in Dulbecco's modified Eagle's medium (DMEM; Bet Haemek, Biological Industries, Israel) supplemented with 10% fetal bovine serum (Bet Haemek, Biological Industries, Israel) and 1% penicillin and streptomycin in a 5% CO2-humidified atmosphere.
Cell proliferation was evaluated using a 2.3-Bis-(2-methoxy-4-nitro-5-sulfophenyl)-2H-tetrazolium-5-carboxyanilide salt (XTT)-based cell proliferation assay kit (Bet Haemek, Biological Industries, Israel). U87 cells were seeded in 96-well plates (5 × 10^3 cells/well) and incubated for 24 h. The medium was then removed, the tested molecules (10^−13-10^−4 M final concentration) were added in FCS-free medium and introduced to the cells for 72 h. After choosing SIXAC as the leading molecule, it was tested in a similar way in CNS-1 cells (SIXAC 1 μM final concentration). XTT solution (50 μl) was added to each well and incubated for 3 h at 37°C. The optical density (OD) of each well was recorded at 450 and 630 nm in a microplate reader (Infinite M200, Tecan, Durham, NC, USA). Cell viability was expressed as the percentage (ODtest–ODblank)/(ODcontrol–ODblank), where ODtest is the optical density of cells exposed to SIXAC treatment, ODcontrol is the optical density of the control sample, and ODblank is the optical density of wells without glioma cells.

PAR1 = conditions: use limited; ref [34] Gao et al., 2015; cited from earlier work
Description: Numerous findings support the involvement of the thrombin-PAR1 pathway in glioma pathology ([8], [13], [18]). We have previously found a positive correlation between edema size and PAR1 expression in an animal model of GBM ([19]). […] In addition to the direct thrombin-PAR1 effects on glioma cells, PARs play a crucial role in the control of angiogenesis and vascular permeability by regulating the release of endostatin and vascular endothelial growth fac ...

[1] = tested on: thrombin mediated PAR1 activation (pERK/ERK) in CNS-1 cells; test: ERK activation (pERK/ERK, Western blot) in CNS-1 cells; format: cell-based, rat; conditions: thrombin 1 U/ml, 10 min, FCS-free; n = 3; control 1 ± 0.07; p < 0.03 vs. control
Method: Cells were seeded (1 × 10^6 cells/75 cm^2 flask) and incubated for 24 h. Then the medium was replaced by FCS-free medium for another 24 h. The cells were treated for 10 min with thrombin (1 U/ml), SIXAC (100 nM), a combination of thrombin and SIXAC or a FCS-free medium which was used as a control (n = 3 for each treatment). The cells were washed and lysed in RIPA buffer (containing in mM: 50 TRIS HCl pH 8, 150 NaCl, 1% NP-40, 0.5% sodium deoxycholate, and 0.1% SDS), a protease inhibitor cocktail (Merck Millipore 539134, 1:100), 0.1 mM sodium orthovanadate and 2 mM PMSF. The cells were scraped, collected and centrifuged (16,000g × 20 min) at 4°C. The supernatants were collected, and protein concentration was determined by means of a bicinchoninic acid (BCA) assay. Each sample (20 μg) was separated by SDS-polyacrylamide gel electrophoresis. The proteins were transferred onto nitrocellulose membranes. Membranes were incubated with mouse anti-phosphorylated Extracellular signal-Regulated Kinase (pERK) antibody (1:10,000, M8159, Sigma), for 1.5 h at room temperature (RT) and washed with Tris-buffered saline and 0.1% Tween 20 (TBST). Membranes were then incubated at RT with horseradish peroxidase-conjugated goat anti-mouse antibody (1:10,000, Jackson Immunoresearch Laboratories). […] Protein bands were detected by a peroxidase-based enhanced chemiluminescence (ECL) method. […]

Compound: Cc1ccc(S(=O)(=O)N[C@@H](CC(=O)O)C(=O)N2CCC[C@H]2C(=O)N[C@@H](CCCNC(=N)N)C(=O)CCl)cc1 [3AACK] (Tos-Asp-Pro-Arg-CH2Cl)
- U87 proliferation rate ("inhibit proliferation at a rate of") (U87 glioma cells; 10^−5M, FCS-free medium, mean ± SEM, 3AACK vs. 6AACK p < 0.035): 0.58 ± 0.046
- U87 proliferation inhibition, compared with 6AACK (U87 glioma cells; 10^−8M, p = 0.7): inhibits more efficiently the proliferation rate when compared to 6AACK at a concentration of 10^−8M, this was found to be non-significant

Compound: CCOC(=O)N[C@@H]1CC[C@@H]2[C@@H](C1)C[C@H]1C(=O)O[C@H](C)[C@H]1[C@H]2/C=C/c1ccc(-c2cccc(F)c2)cn1 [Vorapaxar]
- bleeding side-effects (PAR1): limited due to bleeding side-effects

Compound: thrombin
- pERK/ERK ratio, thrombin alone [1]: 2.09 ± 0.28
